Patent US20180353565A1, “PHARMACEUTICAL FORMULATIONS AND THEIR USE FOR THE TREATMENT OF RETINITIS PIGMENTOSA” (KALEYDE PHARMACEUTICALS AG, priority 2016, published 2018)
Where a SMILES comes first, the peptide text is derived from it. [ ]: non-standard residue; d: D form. αMeF = C[C@](N)(Cc1ccccc1)C(=O)O; Aib = CC(C)(N)C(=O)O

Columns and labels:
[1] = Tissue distribution at Tmax after single subcutaneous administration (LC-MS); format: in vivo, Sprague-Dawley rats; conditions: at Tmax after 16.6 mg/kg s.c., rat
Experimental: (§1) 10 Male Sprague-Dawley rats were used. The rats were divided into two groups of 5 for determination of plasma pharmacokinetics and tissue distribution, by single subcutaneous administration at the dose of 16.6 mg/kg in a volume of 1 mL/kg. Blood samples were taken after 0.25, 0.5, 1, 2, 4, 6, 8 and 24 hours; subsequently, in the second group of rats, tissue samples were taken at Tmax. The kinetic equation, Cmax, Tmax, plasma half-life and AUC were determined. The concentrations were measured by LC-MS.
As will be seen, the kidney is the organ with the highest values compared with the other tissues. However, in the eyes, which represent the target tissue, the peptide is present with a tissue plasma ratio of about 5.

[2] = system: mice with oxygen-induced retinopathy; conditions: cited from earlier work
[3] = system: RCS/Kyo rat (Royal College of Surgeons rat); assay: Efficacy in RCS/KYO rats by intravitreal or subcutaneous administration (retinal and ONL thickness under the microscope); format: in vivo; conditions: for Retinal thickness % of control / Thickness of ONL % of control / Thickness of ONL (outer nuclear layer): age 49 days; for Retinal thickness: measured at age 49 days
From the text: The RCS/Kyo rat (Royal College of Surgeons rat) represents the most commonly used model in the study of this eye disease. RCS rats present retinal degeneration that makes them the ideal model for the study of this disease. […] The epithelial cells of the retina in these animals are unable to ingest the […] photoreceptor cells, and those photoreceptors therefore die.
45 male and female RCS/Kyo rats, aged 14/21 days, were employed, using the tetrapeptide Ac-Arg-Aib-Arg-α(Me)Phe-NH2, formulated as reported in example 1A, at the concentration of 1.2 mg/mL for intravitreal injection, or 7.6 mg/mL for subcutaneous injection.
The treatment regimen used is set out below:
After euthanasia of the rats at the age of 49 days, the thickness of the retina in the various groups was measured under the microscope:
The thickness of the outer layer of granules (outer nuclear layer, ONL, cell body of cones and rods) was also measured.

[4] = Plasma pharmacokinetics after single subcutaneous administration (LC-MS); format: in vivo, Sprague-Dawley rats; conditions: Dose 16.6 mg/kg s.c.
Experimental: as §1

[5] = intravitreal injection, OIR mice
[6] = group S-ivt-sd-t: intravitreal, therapeutic, single dose 4 μg at day 22
[7] = group S-sc-rd-p: subcutaneous, preventive, 1800 μg from day 14, 6 times a week for 5 weeks
[8] = group S-sc-rd-t: subcutaneous, therapeutic, 1800 μg from day 22, 6 times a week for 4 weeks
[9] = male, Sprague-Dawley, sc, rat plasma

Tissue plasma ratio, eyes [1]: about 5
Kelim ([4]; rat plasma): 0.309 ± 0.029 h⁻¹
Tmax ([4]; male, Sprague-Dawley, rat, plasma, sc, 16.6 mg/kg): ~2 h
AUC(0-inf) [4, 9]: 39300 ± 4010 ng·h/mL
AUC(0-t) [4, 9]: 39300 ± 3990 ng·h/mL
Cmax [4, 9]: 5910 ± 1180 ng/mL
half-life [4, 9]: 2.26 ± 0.226 h
Structure (SMILES): CC(=O)N[C@@H](CCCNC(=N)N)C(=O)NC(C)(C)C(=O)N[C@@H](CCCNC(=N)N)C(=O)N[C@@](C)(Cc1ccccc1)C(N)=O [Ac-Arg-Aib-Arg-α(Me)Phe-NH2] (Ac-R[Aib]R[αMeF]-NH2)
Effect on inflammatory markers [2, 5]: reducing the anti-inflammatory markers
Effect on retinal neovascularization [2, 5]: reducing retinal neovascularization
Effect on the blood-retinal barrier [2, 5]: repairing dysfunctions of the blood-retinal barrier
Effect on the structure of the retina (words, literature) ([2]; reported in IOVS (2015), 56(4) 2392-2407): does not modify the structure of the retina
Effect on retinal structure ([3]; RCS/KYO rats): restore nearly all the strongly deteriorated retinal structure
Change of retinal thickness ([3]; all the treated groups, preventive treatment to a lesser extent): considerable increase in retinal thickness
Retinal thickness % of control [3, 6]: 110 % of control
Thickness of ONL % of control [3, 6]: 134 % of control
Thickness of ONL (outer nuclear layer) [3, 6]: 12.09 μm
Retinal thickness ([3]; group S-ivt-sd-t: intravitreal, therapeutic, single dose 4 μg at day 22 after birth): 132.08 μm
Retinal thickness % of control [3, 7]: 130 % of control
Thickness of ONL % of control [3, 7]: 196 % of control
Thickness of ONL (outer nuclear layer) [3, 7]: 17.64 μm
Retinal thickness [3, 7]: 155.25 μm
Retinal thickness % of control [3, 8]: 153 % of control
Thickness of ONL % of control [3, 8]: 196 % of control
Thickness of ONL (outer nuclear layer) [3, 8]: 17.62 μm
Retinal thickness [3, 8]: 182.67 μm
Change of ONL thickness ([3]; repeated subcutaneous doses): double the thickness of the layer
Increase of the photoreceptor layer ([3]; single dose of 4 μg per eye): 34%
